In the NIST ThermoML archive (doi:10.1016/j.jct.2013.05.003):

Test: xn = mol fraction of the nth substance listed
Conditions: 101.3 kPa, Liquid, fixed-path interferometer

CCOCCCN [3-ethoxy-1-propanamine] + O
speed of sound [m/s]
Conditions | 283.15 K | 288.15 K | 293.15 K | 298.15 K | 303.15 K
x1 = 0.0001081 | 1448.8 | 1466.3 | 1483.4 | 1497.2 | 1509.6
x1 = 0.0003191 | 1450 | 1467.4 | 1484.5 | 1498 | 1510.4
x1 = 0.0006252 | 1451.8 | 1469.1 | 1486 | 1499.4 | 1511.6
x1 = 0.000707 | 1452.2 | – | – | – | –
x1 = 0.0009424 | 1453.7 | 1470.9 | 1486.9 | 1500.9 | 1512.8
x1 = 0.001046 | 1454.2 | – | – | – | –
x1 = 0.001284 | 1455.6 | 1472.6 | 1489.1 | 1502.2 | 1514.2
x1 = 0.001947 | 1459.5 | 1476.2 | 1491.7 | 1505.4 | 1516.8
x1 = 0.002912 | 1465.1 | 1481.3 | 1496.4 | 1509.6 | 1520.7
x1 = 0.00392 | 1470.9 | 1486.6 | 1501.2 | 1514 | 1524.7
x1 = 0.005098 | 1477.6 | 1492.8 | 1506.8 | 1519 | 1529.2
x1 = 0.007456 | 1491 | 1505 | – | – | –
x1 = 0.00981 | 1504 | 1516.7 | 1528.6 | 1538.8 | 1547.2
x1 = 0.0148 | 1530.2 | 1540.6 | 1550.3 | 1558.4 | 1565
x1 = 0.01956 | 1554 | 1562.9 | 1569.7 | 1576 | 1580.7
x1 = 0.02832 | 1594.2 | 1599 | 1602.1 | 1604.7 | 1606.4
x1 = 0.03914 | 1636.5 | 1636.7 | 1635.3 | 1633.7 | 1631.8
x1 = 0.05082 | 1672.1 | 1668 | 1662.5 | 1657.2 | 1651.3
x1 = 0.06674 | 1704.8 | 1695.7 | 1685.7 | 1676.2 | 1666.3
x1 = 0.09536 | 1724 | 1709.3 | 1695.7 | 1681.6 | 1667.7
x1 = 0.1209 | 1715.9 | 1700.4 | 1684.2 | 1668.3 | 1653.1
x1 = 0.1452 | 1699.3 | 1682.6 | 1666.7 | 1650.2 | 1633.9
x1 = 0.1844 | 1669 | 1651.6 | 1634.3 | 1617.3 | 1600.4
x1 = 0.2121 | 1645.8 | 1627.7 | 1610.5 | 1593.4 | 1576.1
x1 = 0.2438 | 1623.7 | 1604.4 | 1587.9 | 1569.9 | 1552.3
x1 = 0.2923 | 1593 | 1575 | 1557.5 | 1539.4 | 1521.5
x1 = 0.361 | 1556.4 | 1535.7 | 1518.2 | 1499.2 | 1480.9
x1 = 0.4369 | 1524.2 | 1504.5 | 1485.9 | 1466.9 | 1448.1
x1 = 0.493 | – | – | 1461.7 | 1442.5 | –
x1 = 0.4937 | 1501.5 | 1481 | 1461.8 | 1442.6 | 1423.4
x1 = 0.5513 | 1482.2 | 1461.9 | 1442.2 | 1422.7 | 1403.3
x1 = 0.6214 | 1462.5 | 1441.5 | 1421.8 | 1402 | 1382.3
x1 = 0.6775 | 1448.2 | 1426.9 | 1407.3 | 1386.7 | 1366.7
x1 = 0.6943 | 1444.5 | 1423.4 | 1402.9 | 1383.1 | 1363.1
x1 = 0.7458 | 1432.9 | 1411.3 | 1391.1 | 1370.8 | 1350.5
x1 = 0.7733 | 1427.7 | – | 1385.3 | 1365.2 | 1344.8
x1 = 0.7947 | 1422.9 | 1401.1 | 1380.6 | 1360.2 | 1339.8
x1 = 0.8276 | 1416.8 | 1395.1 | 1374.1 | 1353.6 | 1333.2
x1 = 0.8488 | 1412.3 | 1390.7 | – | 1349.3 | –
x1 = 0.8744 | 1408.1 | – | 1365.1 | 1344.6 | 1324
x1 = 0.8993 | 1403 | 1381.5 | 1360 | 1339.3 | 1319.2
x1 = 0.9189 | 1399.9 | 1378 | 1356.7 | 1335.6 | 1315.1
x1 = 0.9349 | – | 1375 | – | – | –
x1 = 0.9411 | 1395.9 | – | 1352.4 | 1331.8 | 1311.1
x1 = 0.9436 | – | 1373.5 | – | – | –
x1 = 0.9486 | 1394.8 | – | 1351.3 | 1330.7 | 1309.8
x1 = 0.9551 | – | 1371.3 | – | – | –
x1 = 0.9601 | 1392.6 | 1370.4 | – | – | –
x1 = 0.9613 | – | – | 1349 | 1327.9 | 1307.3
x1 = 0.9746 | – | 1367.5 | – | 1325.7 | 1304.7
x1 = 0.9755 | – | 1367.8 | – | – | –
x1 = 0.985 | 1391 | 1366.2 | – | – | –
x1 = 0.9871 | – | – | 1344.3 | 1321.5 | 1302.4
x1 = 1 | 1386.4 | 1364.2 | 1342 | 1321.2 | 1300.4
